# Test results taken from patent US20190364889A1, “Application of Enhancer in Shortening the Half Life of and/or Time for Complete Degradation of Pesticide Residue” (priority 2016, published 2019).
# Details: in vivo
structure (smiles),measurement,value
CCOCN(C(=O)CCl)c1c(C)cccc1CC [acetochlor],complete degradation time,~21 days
